One compound from ChEMBL document CHEMBL5705898 (Proc Natl Acad Sci U S A, 2014) can be followed below.

Molecules are shown by their SMILES.

The target in this assay is T1, Histone-lysine N-methyltransferase SETD7 (Homo sapiens, UniProt Q8WTS6).
T1 sequence (Q8WTS6 whole entry): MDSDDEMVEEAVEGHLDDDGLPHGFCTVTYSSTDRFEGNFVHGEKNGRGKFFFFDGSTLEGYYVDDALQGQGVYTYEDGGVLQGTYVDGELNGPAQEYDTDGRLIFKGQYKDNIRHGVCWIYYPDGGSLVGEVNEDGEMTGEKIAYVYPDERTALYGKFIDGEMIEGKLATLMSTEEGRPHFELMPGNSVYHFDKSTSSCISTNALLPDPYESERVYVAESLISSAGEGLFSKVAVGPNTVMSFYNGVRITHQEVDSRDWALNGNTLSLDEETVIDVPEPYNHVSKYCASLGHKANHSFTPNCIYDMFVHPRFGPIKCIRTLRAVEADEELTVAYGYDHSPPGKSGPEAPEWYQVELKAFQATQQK
In words: Inhibition of wildtype full length human SETD7 (1 to 366 residues) expressed in Escherichia coli BL21 (DE3) V2R-pRARE using biotinylated H3 (1-25) peptide as substrate incubated for 1 hrs in presence of 3H-SAM by radioactivity based assay.

In the case of `O=C([C@H](Cc1cccc(C(F)(F)F)c1)NS(=O)(=O)c1cc(F)c2c(c1)CCNC2)N1CCCC1`, the IC50 worked out at 1000 nM.
